# Laboratory results taken from patent US20230017786A1, “DEXTR[…] A DISEASE-MODIFYING TREATMENT FOR NEUROPSYCHIATRIC DISORDERS AND DISEASES” (priority 2020, published 2023).
# Experiments:
# [1] = target: T1, human NMDA receptor GluN1-GluN2C (Homo sapiens, UniProt Q05586+Q14957); experiment: FLIPR calcium assay, quinolinic acid, gentamicin, dextromethadone (Example 5 Part II), GluN1-GluN2C-CHO; format: cell-based; conditions: for calcium response (mean±SEM): GluN2C, n=42
# T1 construct: expressed in transfected cells; host or cells: CHO
# Description: (§1) Quinolinic acid or gentamicin CRCs were also produced, in presence of 10 μM glycine.
# (§2) Test items were evaluated in FLIPR for their ability to modulate, alone or in combination, calcium entry in presence of […], using four CHO cell lines expressing diheteromeric human NMDA receptor (NMDAR): GluN-/GluN2A-CHO, GluN1-GluN2B-CHO, GluN1-GluN2C-CHO, GluN1-GluN2D-CHO.
# (§3) The first aim of the study was to evaluate quinolinic acid or gentamicin CRC effect in the presence of 10 μM glycine.
# (§4) FLIPR determination of intracellular calcium level was used as a read-out for NMDAR activation.
# (§5) 400× compound plate was stored at −20° C. till FLIPR experimental day.
# (§6) A 4× compound plate was generated from 400× compound plate by addition of up to 30 μl/well of compound buffer on FLIPR experimental day.
# (§7) A FLIPR system was used to monitor intracellular calcium level in NMDAR cell lines, pre-loaded for 1 hour with Fluo-4, and then washed with assay buffer.
# (§8) Y=Bottom+(Top−Bottom)/(1+10^((LogEC50−X)*HillSlope))
# (§9) Test item CRC data were plotted by Prism 8 GraphPad software, in the different experimental conditions. And, column analysis, performed by Prism 8 GraphPad software, was one way ANOVA followed by Tukey's multiple comparisons test, with a single pooled variance.
# [2] = target: rat GluN1-GluN2B receptor (Rattus norvegicus, UniProt P35439+Q00960); conditions: Banke and Traynelis, 2003; read-out: potency; cited from earlier work
# [3] = target: T2, human NMDA receptor GluN1-GluN2B (Homo sapiens, UniProt Q05586+Q13224); experiment: FLIPR calcium assay, quinolinic acid, gentamicin, dextromethadone (Example 5 Part II), GluN1-GluN2B-CHO; format: cell-based; conditions: for calcium response (mean±SEM): GluN2B, n=42; for Response at max conc (%): quinolinic acid CRC, max 1,000 μM
# T2 construct: expressed in transfected cells; host or cells: CHO
# T2 sequence (Q13224 27-1484, other chains not shown): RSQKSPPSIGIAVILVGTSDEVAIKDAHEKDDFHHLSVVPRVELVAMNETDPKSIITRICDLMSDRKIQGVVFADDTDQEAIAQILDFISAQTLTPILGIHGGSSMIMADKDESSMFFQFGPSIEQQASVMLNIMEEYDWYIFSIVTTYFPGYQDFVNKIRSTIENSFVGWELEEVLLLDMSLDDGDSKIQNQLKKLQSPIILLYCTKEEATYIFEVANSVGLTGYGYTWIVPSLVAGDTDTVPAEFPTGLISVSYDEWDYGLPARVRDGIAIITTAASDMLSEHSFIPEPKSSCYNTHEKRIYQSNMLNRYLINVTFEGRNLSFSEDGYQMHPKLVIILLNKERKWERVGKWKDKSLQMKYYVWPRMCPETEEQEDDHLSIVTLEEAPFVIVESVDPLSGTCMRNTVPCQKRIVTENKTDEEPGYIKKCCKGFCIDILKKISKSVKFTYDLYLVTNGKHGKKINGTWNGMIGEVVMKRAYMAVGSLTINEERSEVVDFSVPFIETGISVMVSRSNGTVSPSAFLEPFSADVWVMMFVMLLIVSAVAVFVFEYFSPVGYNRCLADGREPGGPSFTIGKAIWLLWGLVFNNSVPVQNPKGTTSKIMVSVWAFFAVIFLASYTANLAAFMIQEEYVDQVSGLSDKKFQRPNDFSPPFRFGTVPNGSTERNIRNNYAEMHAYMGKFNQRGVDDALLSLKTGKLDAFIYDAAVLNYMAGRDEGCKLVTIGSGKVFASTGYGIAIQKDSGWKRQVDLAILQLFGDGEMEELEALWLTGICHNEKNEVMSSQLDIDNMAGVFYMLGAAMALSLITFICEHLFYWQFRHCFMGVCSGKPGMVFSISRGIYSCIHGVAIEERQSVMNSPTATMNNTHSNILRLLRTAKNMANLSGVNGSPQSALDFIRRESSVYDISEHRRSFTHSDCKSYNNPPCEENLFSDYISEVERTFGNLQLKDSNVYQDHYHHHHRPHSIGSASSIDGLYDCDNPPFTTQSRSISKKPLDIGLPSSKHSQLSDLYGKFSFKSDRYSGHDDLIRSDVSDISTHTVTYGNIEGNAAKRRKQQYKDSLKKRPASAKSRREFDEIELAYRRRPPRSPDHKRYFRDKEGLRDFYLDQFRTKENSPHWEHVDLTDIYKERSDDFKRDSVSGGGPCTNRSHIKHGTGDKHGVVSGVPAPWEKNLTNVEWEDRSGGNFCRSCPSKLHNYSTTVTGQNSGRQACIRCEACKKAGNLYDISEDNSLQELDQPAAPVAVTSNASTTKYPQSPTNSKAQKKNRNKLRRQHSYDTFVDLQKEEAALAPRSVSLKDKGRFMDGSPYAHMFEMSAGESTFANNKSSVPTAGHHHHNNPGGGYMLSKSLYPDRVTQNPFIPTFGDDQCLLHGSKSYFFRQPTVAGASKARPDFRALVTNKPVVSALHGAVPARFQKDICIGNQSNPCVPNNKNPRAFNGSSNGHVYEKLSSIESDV
# Description: as §1, §2, §3, §4, §5, §6, §7, §8, §9
# [4] = target: T3, human NMDA receptor GluN1-GluN2D (Homo sapiens, UniProt O15399+Q05586); experiment: FLIPR calcium assay, quinolinic acid, gentamicin, dextromethadone (Example 5 Part II), GluN1-GluN2D-CHO; format: cell-based; conditions: for calcium response (mean±SEM): GluN2D, n=42
# T3 construct: expressed in transfected cells; host or cells: CHO
# T3 sequence (O15399 28-1336, other chains not shown): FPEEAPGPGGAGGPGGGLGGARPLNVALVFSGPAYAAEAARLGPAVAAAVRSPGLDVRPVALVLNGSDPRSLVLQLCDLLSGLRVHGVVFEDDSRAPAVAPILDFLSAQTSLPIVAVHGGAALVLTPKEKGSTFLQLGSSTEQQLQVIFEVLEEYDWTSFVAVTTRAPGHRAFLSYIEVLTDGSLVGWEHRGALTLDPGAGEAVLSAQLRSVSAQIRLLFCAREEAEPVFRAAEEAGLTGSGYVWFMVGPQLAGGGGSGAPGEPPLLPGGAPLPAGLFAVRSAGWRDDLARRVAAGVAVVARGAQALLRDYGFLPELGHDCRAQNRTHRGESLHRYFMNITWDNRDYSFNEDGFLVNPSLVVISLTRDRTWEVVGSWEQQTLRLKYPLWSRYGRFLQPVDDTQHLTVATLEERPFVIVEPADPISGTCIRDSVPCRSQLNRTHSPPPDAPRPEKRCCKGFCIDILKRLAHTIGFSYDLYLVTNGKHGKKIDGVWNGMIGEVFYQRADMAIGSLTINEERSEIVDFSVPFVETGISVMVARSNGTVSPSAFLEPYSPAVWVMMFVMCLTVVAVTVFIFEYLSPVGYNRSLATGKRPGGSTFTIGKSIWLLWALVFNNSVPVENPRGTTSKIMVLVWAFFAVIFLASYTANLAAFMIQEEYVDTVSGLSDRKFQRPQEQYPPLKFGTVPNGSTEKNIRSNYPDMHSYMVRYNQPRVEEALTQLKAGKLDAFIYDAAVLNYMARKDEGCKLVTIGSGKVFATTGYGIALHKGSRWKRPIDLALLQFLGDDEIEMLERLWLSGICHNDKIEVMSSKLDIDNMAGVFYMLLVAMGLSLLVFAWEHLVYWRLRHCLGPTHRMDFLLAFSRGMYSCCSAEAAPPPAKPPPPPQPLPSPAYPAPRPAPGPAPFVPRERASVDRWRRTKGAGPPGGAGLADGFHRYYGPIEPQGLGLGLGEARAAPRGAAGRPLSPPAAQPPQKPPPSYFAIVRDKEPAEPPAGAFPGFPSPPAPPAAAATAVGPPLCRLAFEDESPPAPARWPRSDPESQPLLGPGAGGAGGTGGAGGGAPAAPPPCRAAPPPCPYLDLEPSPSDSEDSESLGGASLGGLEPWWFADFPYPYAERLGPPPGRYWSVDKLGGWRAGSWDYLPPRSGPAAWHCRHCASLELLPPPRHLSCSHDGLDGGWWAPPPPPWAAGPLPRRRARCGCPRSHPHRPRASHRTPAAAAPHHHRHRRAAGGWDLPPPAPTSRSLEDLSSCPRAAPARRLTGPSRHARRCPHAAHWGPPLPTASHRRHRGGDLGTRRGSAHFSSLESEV
# Description: as §1, §2, §3, §4, §5, §6, §7, §8, §9
# [5] = target: T4, human NMDA receptor GluN1-GluN2A (Homo sapiens, UniProt Q05586+Q12879); experiment: FLIPR calcium assay, quinolinic acid, gentamicin, dextromethadone (Example 5 Part II), GluN1-GluN2A-CHO; format: cell-based; design: calcium response (mean±SEM): unit not given here; conditions: for calcium response (mean±SEM): GluN2A, n=42
# T4 construct: expressed in transfected cells; host or cells: CHO
# T4 sequence (Q12879 23-1464, other chains not shown): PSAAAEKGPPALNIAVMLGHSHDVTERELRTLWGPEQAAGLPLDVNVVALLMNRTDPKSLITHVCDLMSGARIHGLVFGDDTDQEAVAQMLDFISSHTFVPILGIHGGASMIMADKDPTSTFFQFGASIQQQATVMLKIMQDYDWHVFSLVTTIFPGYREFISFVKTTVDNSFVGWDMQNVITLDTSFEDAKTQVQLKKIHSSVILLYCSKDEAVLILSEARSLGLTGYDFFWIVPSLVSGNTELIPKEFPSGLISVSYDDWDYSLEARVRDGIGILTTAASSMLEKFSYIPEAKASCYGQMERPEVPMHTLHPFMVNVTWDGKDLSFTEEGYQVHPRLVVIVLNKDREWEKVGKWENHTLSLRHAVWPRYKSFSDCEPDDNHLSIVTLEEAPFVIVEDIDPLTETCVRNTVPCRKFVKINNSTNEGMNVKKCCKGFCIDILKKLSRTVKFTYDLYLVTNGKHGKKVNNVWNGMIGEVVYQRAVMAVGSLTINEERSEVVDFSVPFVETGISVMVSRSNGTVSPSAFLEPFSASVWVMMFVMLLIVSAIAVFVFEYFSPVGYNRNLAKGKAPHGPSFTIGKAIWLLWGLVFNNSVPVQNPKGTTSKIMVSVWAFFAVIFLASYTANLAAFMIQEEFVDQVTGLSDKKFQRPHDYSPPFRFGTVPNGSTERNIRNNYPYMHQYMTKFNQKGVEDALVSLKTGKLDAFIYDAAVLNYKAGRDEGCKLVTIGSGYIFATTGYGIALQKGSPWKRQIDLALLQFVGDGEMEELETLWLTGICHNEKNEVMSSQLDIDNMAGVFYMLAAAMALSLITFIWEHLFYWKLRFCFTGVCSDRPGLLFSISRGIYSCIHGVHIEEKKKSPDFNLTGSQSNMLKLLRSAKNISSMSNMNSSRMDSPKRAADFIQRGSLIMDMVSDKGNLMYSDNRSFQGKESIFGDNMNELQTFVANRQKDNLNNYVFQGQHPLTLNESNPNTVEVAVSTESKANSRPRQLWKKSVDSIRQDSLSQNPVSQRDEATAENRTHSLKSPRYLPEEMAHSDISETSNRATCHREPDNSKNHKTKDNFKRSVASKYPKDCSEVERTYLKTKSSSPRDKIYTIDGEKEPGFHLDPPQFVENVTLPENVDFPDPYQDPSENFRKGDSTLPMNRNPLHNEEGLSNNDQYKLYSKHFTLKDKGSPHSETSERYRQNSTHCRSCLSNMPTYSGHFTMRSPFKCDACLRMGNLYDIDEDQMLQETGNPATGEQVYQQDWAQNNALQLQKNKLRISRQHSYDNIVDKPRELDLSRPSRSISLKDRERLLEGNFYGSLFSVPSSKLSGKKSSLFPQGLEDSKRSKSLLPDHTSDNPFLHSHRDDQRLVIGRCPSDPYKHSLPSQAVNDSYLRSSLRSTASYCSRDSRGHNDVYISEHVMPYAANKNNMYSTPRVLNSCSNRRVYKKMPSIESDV
# Description: as §1, §2, §3, §4, §5, §6, §7, §8, §9
# [6] = 0.04 μM L-Glu + 100 μM QA, 10 μM glycine
# [7] = 0.04 μM L-Glu + 1000 μM QA, 10 μM glycine
# [8] = 0.2 μM L-Glu + 100 μM QA, 10 μM glycine
# [9] = 0.2 μM L-Glu + 1000 μM QA, 10 μM glycine
# [10] = 100 μM QA, 10 μM glycine, 100% = 10 μM L-glutamate plus 10 μM glycine
# [11] = 1000 μM QA, 10 μM glycine, 100% = 10 μM L-glutamate plus 10 μM glycine
# [12] = CRC in presence of 10 μM glycine
# [13] = quinolinic acid CRC, max 1,000 μM, 10 μM glycine
# [14] = 1000 μM QA, 10 μM glycine, 100% = 10 μM L-glutamate plus 10 μM glycine, listed as QA
smiles,measurement,setting,value
O=C(O)c1cccnc1C(=O)O [Quinolinic acid],calcium response (mean±SEM),[1]; [6],−2.0 ± 1.1
same,calcium response (mean±SEM),[1]; [7],−4.1 ± 0.9^
same,calcium response (mean±SEM),[1]; [8],27 ± 1.1
same,calcium response (mean±SEM),[1]; [9],6.6 ± 0.8
same,EC50,"[1]; 10 μM glycine, read-out: EC50",> 1000 µM
same,"% effect on calcium entry, 100 QA",[1]; [10],−2.8 ± 0.6%
same,calcium response (mean±SEM),"[1]; 1000 μM QA, 10 μM glycine",−5.5 ± 0.4^
same,"% effect on calcium entry, 1000 QA",[1]; [11],−5.5 ± 0.4^ %
same,Minimal response (%),[1]; [12],−4.0%
same,intracellular calcium increase elicited by 0.2 μM L-glutamate,"[1]; plus 1000 μM quinolinic acid, 10 μM glycine",6.6±0.8%
same,Response at max conc (%),[1]; [13],−4.0%
same,EC50,[2],518 ± 35 µM
same,calcium response (mean±SEM),[3]; [6],3.7 ± 1.3
same,calcium response (mean±SEM),[3]; [7],27 ± 2.2
same,calcium response (mean±SEM),[3]; [8],27 ± 0.8
same,calcium response (mean±SEM),[3]; [9],27 ± 1.5
same,EC50,"[3]; 10 μM glycine, read-out: EC50",170 µM
same,"% effect on calcium entry, 100 QA",[3]; [10],0.9 ± 0.7%
same,calcium entry in CRC,"[3]; 333 μM quinolinic acid, 10 μM glycine",23±3.0%
same,calcium response (mean±SEM),"[3]; 1000 μM QA, 10 μM glycine",37 ± 1.3
same,"% effect on calcium entry, 1000 QA",[3]; [11],37±1.3%
same,"% effect on calcium entry, 1000 QA",[3]; [14],37 ± 1.3%
same,Minimal response (%),[3]; [12],−2.1%
same,Response at max conc (%),[3]; 10 μM glycine,25%
same,Response at max conc (%),"[3]; 10 μM glycine, listed as quinolinic acid",25±2.1%
same,calcium response (mean±SEM),[4]; [6],26 ± 1.2
same,calcium response (mean±SEM),[4]; [7],53 ± 2.3
same,calcium response (mean±SEM),[4]; [8],93 ± 1.0
same,calcium response (mean±SEM),[4]; [9],58 ± 1.6
same,EC50,"[4]; 10 μM glycine, read-out: EC50",520 µM
same,"% effect on calcium entry, 100 QA",[4]; [10],−0.1 ± 0.4%
same,calcium response (mean±SEM),"[4]; 1000 μM QA, 10 μM glycine",55 ± 1.1
same,"% effect on calcium entry, 1000 QA",[4]; [11],55±1.1%
same,"% effect on calcium entry, 1000 QA",[4]; [14],55 ± 1.1%
same,Minimal response (%),[4]; [12],−1.3%
same,Response at max conc (%),[4]; [13],50%
same,calcium response (mean±SEM),[5]; [6],7.5 ± 0.4
same,calcium response (mean±SEM),[5]; [7],41 ± 1.0
same,calcium response (mean±SEM),[5]; [8],26 ± 0.6
same,calcium response (mean±SEM),[5]; [9],46 ± 0.9
same,EC50,"[5]; 10 μM glycine, fit with maximal response constrained at 75%, read-out: EC50",850 µM
same,"% effect on calcium entry, 100 QA",[5]; [10],2.5 ± 0.3%
same,calcium response (mean±SEM),"[5]; 1000 μM QA, 10 μM glycine",41 ± 1.2
same,"% effect on calcium entry, 1000 QA",[5]; [11],41±1.1%
same,"% effect on calcium entry, 1000 QA",[5]; [14],41 ± 1.2%
same,"% effect on calcium entry, 1000 QA","[5]; 1000 μM QA, 10 μM glycine, 100% = 10 μM L-glutamate plus 10 μM glycine, listed as quinolinic acid",41±1.2%
same,Minimal response (%),[5]; [12],−1.9%
same,Response at max conc (%),[5]; [13],40%
